Results reported in PMC6218510, “Step Sizes and Rate Constants of Single-headed Cytoplasmic Dynein Measured with Optical Tweezers” (Scientific Reports, 2018).

Tests used:
[1] = biological target: T1, D384GB (D384 with GFP at the linker N-terminus and BFP in AAA2) (Homo sapiens, UniProt Q14204); experiment: BFP-GFP FRET efficiency of linker swing against ATP, steady state; type: biochemical; conditions: no microtubules; ATP-regenerating system (creatine phosphate / creatine phosphate kinase); 100 nM dynein; conformational read-out, not a turnover Km; read-out: Km^E (k1/kT)
T1 construct: gene DYNC1H1; Gly1288-Glu4646; N-terminal FLAG, BCCP and AcGFP kept; BFP inserted between Glu2404 and Gly2405 (AAA2); Sf9; monomer

[2] = biological target: T1, D384GB (D384 with GFP at the linker N-terminus and BFP in AAA2); experiment: ATPase assay, phosphate release (EnzChek, absorbance […] nm); type: biochemical; conditions: basal, no microtubules; 25 °C; read-out: Michaelis-Menten constant

T1 sequence (Q14204 1288-2404): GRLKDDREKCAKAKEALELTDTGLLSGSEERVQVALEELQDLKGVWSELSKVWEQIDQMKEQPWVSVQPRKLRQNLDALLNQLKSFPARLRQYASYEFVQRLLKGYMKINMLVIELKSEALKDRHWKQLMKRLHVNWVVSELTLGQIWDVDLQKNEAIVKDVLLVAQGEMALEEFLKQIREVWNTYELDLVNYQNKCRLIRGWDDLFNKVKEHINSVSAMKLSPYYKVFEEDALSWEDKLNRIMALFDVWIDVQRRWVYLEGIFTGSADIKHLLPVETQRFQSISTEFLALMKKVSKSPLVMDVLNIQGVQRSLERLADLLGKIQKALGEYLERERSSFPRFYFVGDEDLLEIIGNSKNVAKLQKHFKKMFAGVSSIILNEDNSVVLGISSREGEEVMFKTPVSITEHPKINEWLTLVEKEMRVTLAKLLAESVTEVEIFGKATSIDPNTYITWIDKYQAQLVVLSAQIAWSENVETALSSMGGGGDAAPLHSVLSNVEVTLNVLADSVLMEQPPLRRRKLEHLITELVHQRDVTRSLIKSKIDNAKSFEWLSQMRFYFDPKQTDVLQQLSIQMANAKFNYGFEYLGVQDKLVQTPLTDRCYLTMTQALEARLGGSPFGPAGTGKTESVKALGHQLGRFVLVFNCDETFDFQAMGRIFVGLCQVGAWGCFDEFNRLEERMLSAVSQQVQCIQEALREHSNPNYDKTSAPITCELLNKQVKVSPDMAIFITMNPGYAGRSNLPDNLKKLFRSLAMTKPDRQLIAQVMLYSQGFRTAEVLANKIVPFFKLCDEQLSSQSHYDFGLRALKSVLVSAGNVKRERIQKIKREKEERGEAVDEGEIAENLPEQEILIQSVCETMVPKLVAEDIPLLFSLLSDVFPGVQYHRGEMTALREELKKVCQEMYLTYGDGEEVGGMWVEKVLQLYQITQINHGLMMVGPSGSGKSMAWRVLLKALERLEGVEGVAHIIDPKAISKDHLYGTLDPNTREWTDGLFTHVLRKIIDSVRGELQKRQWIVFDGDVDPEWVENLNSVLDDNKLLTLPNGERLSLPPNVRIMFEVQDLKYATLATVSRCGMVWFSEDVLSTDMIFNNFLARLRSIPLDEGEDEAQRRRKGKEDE
T1 sequence (Q14204 2405-4646): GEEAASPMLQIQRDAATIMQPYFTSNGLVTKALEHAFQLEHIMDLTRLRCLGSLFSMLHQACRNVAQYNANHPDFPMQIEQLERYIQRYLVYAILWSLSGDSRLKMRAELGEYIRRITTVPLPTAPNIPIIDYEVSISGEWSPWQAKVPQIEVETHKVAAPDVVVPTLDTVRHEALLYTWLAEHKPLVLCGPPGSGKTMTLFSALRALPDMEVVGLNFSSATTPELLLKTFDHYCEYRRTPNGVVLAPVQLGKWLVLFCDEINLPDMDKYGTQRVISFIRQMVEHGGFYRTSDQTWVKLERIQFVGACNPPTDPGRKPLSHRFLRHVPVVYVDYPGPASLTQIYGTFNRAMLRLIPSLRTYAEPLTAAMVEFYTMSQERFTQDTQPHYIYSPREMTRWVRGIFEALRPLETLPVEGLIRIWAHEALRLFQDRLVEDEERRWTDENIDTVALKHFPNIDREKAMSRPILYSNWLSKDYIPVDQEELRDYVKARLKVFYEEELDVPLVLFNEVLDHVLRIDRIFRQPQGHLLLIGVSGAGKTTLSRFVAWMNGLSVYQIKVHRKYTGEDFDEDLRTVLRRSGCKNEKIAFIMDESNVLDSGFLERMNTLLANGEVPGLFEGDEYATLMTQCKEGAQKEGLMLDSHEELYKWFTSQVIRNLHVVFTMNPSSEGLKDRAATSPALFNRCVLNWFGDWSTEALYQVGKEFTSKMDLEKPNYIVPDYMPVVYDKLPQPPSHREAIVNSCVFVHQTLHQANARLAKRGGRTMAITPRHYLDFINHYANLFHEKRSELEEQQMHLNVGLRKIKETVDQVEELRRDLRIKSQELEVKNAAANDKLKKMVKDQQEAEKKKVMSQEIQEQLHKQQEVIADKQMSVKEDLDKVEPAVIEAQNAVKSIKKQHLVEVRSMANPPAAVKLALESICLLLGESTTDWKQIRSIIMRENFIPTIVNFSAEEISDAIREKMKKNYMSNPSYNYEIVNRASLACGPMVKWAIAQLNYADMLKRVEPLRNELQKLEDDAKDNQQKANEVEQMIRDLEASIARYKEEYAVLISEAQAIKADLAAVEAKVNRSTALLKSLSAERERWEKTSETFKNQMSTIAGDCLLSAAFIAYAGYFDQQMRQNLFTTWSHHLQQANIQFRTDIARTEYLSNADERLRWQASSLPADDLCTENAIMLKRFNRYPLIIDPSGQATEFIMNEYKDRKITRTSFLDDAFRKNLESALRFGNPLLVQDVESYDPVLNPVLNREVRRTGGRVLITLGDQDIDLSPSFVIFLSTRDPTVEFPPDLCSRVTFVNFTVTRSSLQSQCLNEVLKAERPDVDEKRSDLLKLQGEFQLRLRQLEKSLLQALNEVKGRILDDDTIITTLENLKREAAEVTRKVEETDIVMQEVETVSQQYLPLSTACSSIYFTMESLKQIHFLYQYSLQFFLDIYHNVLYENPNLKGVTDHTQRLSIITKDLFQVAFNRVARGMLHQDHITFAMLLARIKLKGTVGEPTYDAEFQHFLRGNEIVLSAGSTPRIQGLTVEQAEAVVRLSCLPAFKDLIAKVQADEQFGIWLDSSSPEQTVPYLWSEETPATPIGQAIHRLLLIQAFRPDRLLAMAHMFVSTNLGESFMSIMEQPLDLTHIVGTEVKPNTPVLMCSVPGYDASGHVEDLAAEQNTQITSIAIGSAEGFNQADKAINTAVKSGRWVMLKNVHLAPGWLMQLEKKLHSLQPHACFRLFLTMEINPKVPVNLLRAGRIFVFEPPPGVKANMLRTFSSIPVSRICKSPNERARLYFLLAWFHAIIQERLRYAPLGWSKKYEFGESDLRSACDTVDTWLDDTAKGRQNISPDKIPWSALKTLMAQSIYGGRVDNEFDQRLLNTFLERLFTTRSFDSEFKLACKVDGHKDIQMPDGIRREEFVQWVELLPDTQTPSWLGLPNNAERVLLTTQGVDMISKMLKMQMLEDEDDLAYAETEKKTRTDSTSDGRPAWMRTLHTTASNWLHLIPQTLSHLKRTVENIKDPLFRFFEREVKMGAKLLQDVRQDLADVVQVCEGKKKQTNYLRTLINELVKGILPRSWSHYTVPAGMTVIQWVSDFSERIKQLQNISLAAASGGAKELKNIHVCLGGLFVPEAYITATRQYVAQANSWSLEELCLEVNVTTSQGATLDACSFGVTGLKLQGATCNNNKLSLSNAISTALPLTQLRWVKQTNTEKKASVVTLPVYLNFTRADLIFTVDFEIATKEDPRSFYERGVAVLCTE

Compound `Nc1ncnc2c1ncn2[C@@H]1O[C@H](COP(=O)(O)OP(=O)(O)OP(=O)(O)O)[C@@H](O)[C@H]1O` [ATP] has a Km [1] of 3.3 ± 0.3 µM and a Km [2] of 27 ± 3 µM.
